Results on one molecule are retold here after US10828436B2, “Administering the noble gas argon during cardiopulmonary resuscitation” (Vanderbilt University, priority 2016, dated 2020).

The subject of one test is rat isolated hearts. As to the kind of experiment: Rat isolated hearts, 30 min global no-flow ischemia and 120 min reperfusion. Conditions: for defibrillation by lidocaine administration required to convert back to sinus rhythm: vs control hearts, P<0.05. The text has this:
(§1) In one example, in-vivo experiments included a systematic study of the effect of Argon administered during CPR in a pig model of cardiac arrest on cardiac and neurological function, histological and other molecular effects after ROSC including 24- or 48 hr survival studies. […] Other examples include cell culture (in vitro) and isolated heart (ex vivo) experiments. The in vitro experiments include a systematic study of the effect of Argon administered on reoxygenation after prolonged hypoxia on markers of cellular injury and cell death in cardiomycytes and neuronal cell cultures. The ex vivo experiments include a systematic study of the effect of Argon administered on reperfusion after global coronary ischemia on coronary and myocardial function and infarct size in rat isolated hearts.

The next test relates to rat isolated lungs. As to the kind of experiment: Rat isolated lungs, pulmonary vascular resistance under different gas mixtures. The procedure: Rat isolated lungs ventilated with either 65% N2 or 65% Argon plus 30% O2 and 5% CO2 and perfused at a rate of 40 mL/kg body weight with physiological salt solution plus 4% albumin via cannulas placed into the pulmonary artery (PA) and left atrium. PA pressure is recorded throughout the experiment and analyzed to determine the effect of different gas mixtures on the pulmonary vascular resistance. Argon led to a reversible 28% drop in pulmonary perfusion pressure at constant flow compared to ventilation with Nitrogen before and after. P<0.05*vs Nitrogen, † vs Argon.

In another test the test system is human cardiomyocytes. As to the kind of experiment: Hypoxia/reoxygenation in isolated cells, LDH injury marker. Type of test: cell-based. To be noted: Argon for 10 min or 30 min upon reoxygenation after hypoxia, vs control HR with nitrogen. The procedure:
(§2) These experiments show no evidence that Argon, given for 10 min or 30 min upon reoxygenation (R) after hypoxia (H), directly improves the cellular injury marker lactate dehydrogenase (LDH) compared to control HR with nitrogen.
as §1

In test [1] the test system is pig model of cardiac arrest. Description: Pig model of cardiac arrest and CPR with Argon/O2 given during CPR before ROSC. The test is classed as in vivo. The method, then: Argon treatment led to higher systemic pulse pressures (arterial pressure during compression minus pressure during decompression), a lower number of defibrillation attempts and epinephrine requirements to achieve ROSC, a higher ROSC rate, lower lactic acidosis upon ROSC and lower cardiac injury markers (CK-MB and Troponin I) 6 hours after ROSC.
as §1, with “hearts. […]” for “hearts.”

Test [2] deals with coronary artery endothelial cells. Description: Hypoxia/reoxygenation in isolated cells, LDH injury marker. Type of test: cell-based, human. Conditions: Argon for 10 min or 30 min upon reoxygenation after hypoxia, vs control HR with nitrogen. The procedure: as §2
[3] abbreviates: 65% Argon for 10 or 120 min of reperfusion vs 65% Nitrogen.
Setting [4] is: gas mixture given during CPR, pigs.

With `[Ar]` [Argon, argon], in the test on rat isolated hearts (setting [3]), the “coronary or myocardial function (diastolic and developed left ventricular pressure, coronary flow)” value is recorded as “no evidence of improved”; the infarct size result is reported as “no evidence of improved”. For the same molecule, in the test on rat isolated hearts, the “defibrillation by lidocaine administration required to convert back to sinus rhythm” value is reported as “significantly less”. The “defibrillation by lidocaine administration required to convert back to sinus rhythm” value with rat isolated hearts (listed as 70% Argon) was “less”. Moreover, the “drop in pulmonary perfusion pressure at constant flow” value in the test on rat isolated lungs (65% Argon plus 30% O2 and 5% CO2, reversible, vs ventilation with Nitrogen before and after) is 28%. Also, in the test with rat isolated lungs (isolated lungs, in words), the “pulmonary artery pressure at constant flow” value was “lower”. In addition, in the test with human cardiomyocytes, the “improvement of cellular injury marker lactate dehydrogenase (LDH)” value is reported as “no evidence”. Moreover, in test [1] (CPR with 70% Argon, compared to control animals without Argon during CPR, in words), the outcome parameters is reported as “much improved”. Also, in test [1] (during CPR, vs Nitrogen/O2, in words), the “systemic pulse pressures (arterial pressure during compression minus pressure during decompression)” value is recorded as “higher”. In test [1] (setting [4]), the “Arterial pH upon ROSC” value came out at 7.27 ± 0.05, the “CK-MB 6 hrs after ROSC” value is given as 15.2 ± 4.3 ng/mL, the “Epinephrine dose to achieve ROSC” value is listed as 0.7 ± 0.2 mg and the “Lactate upon ROSC” value worked out at 6.8 ± 0.7 mEq. For the same molecule, in test [1] (setting [4]), the “Number of defibrillations to achieve ROSC” value came to 2.4 ± 1.0 n, the “Pulse pressure at 3 min CPR” value worked out at 62.3 ± 3.7 mmHg, the ROSC stood at 100% and the “Troponin I 6 hrs after ROSC” value amounted to 6.8 ± 4.7 ng/mL. Besides, in test [1] (vs Nitrogen/O2, in words), the ROSC rate result is “higher”; the “cardiac injury markers (CK-MB and Troponin I) 6 hours after ROSC” value is reported as “lower”; the “epinephrine requirements to achieve ROSC” value is “lower”; the “lactic acidosis upon ROSC” value is reported as “lower”. For the same molecule, in test [1] (vs Nitrogen/O2, in words), the “number of defibrillation attempts to achieve ROSC” value was “lower”. Further, the “number of defibrillation attempts to achieve ROSC” value in test [1] (vs Nitrogen/O2, in words, listed as 70% Argon) is “less”. Moreover, the “improvement of cellular injury marker lactate dehydrogenase (LDH)” value in test [2] is listed as “no evidence”.
